The values that follow come from patent US4242350A, “Antisecretory thiadiazole derivatives, processes for their manufacture and pharmaceutical compositions containing them” (Imperial Chemical Industries Limited, priority 1978, dated 1980).

One data set is described as follows: oral toxicity in rodents. The note with it: dosed orally to rodents at 300 mg/kg. The class given is in vivo.
The next data set can be described thus: oral tolerance in dogs. The class given is in vivo. The following applies: dogs dosed orally with 100 mg./kg. An excerpt: No overt toxicity or side effects were noted during the dog tests.

Take `CNC(=NC#N)NCCSCc1nsc(NC(=N)N)n1` [3-[2-(2-cyano-3-methylguanidino)ethylthiomethyl]-5-guanidino-1,2,4-thiadiazole]: the toxicity result in “oral toxicity in rodents” is “no toxicity”. For the same compound, the tolerance entry in “oral tolerance in dogs” was “well tolerated”.
